# Results from ChEMBL document CHEMBL4507269, “Data for DCP probe BAY-386” (2021).
# Experiments:
# [1] = molecular target: Cannabinoid receptor 1 (Homo sapiens) (UniProt P21554); test: CB1 (h) Eurofins-Cerep Cellular and Nuclear Receptor Functional Assays; settings: Compound concentration 10.0 uM
# [2] = molecular target: Melanocortin receptor 4 (Homo sapiens) (UniProt P32245); test: MC4 (h) Eurofins-Cerep Cellular and Nuclear Receptor Functional Assays; settings: Compound concentration 10.0 uM
# Sequence of Melanocortin receptor 4 (Homo sapiens) (P32245 whole entry): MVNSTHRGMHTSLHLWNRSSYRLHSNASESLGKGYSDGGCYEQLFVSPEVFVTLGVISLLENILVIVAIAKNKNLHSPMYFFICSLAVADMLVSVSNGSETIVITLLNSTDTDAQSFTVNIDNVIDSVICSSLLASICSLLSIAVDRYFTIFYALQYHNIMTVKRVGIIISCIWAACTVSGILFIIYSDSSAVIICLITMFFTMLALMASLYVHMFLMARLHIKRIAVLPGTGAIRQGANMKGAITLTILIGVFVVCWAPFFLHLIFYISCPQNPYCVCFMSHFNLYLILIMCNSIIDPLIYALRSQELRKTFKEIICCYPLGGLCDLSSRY
# [3] = tested on: Tyrosine-protein kinase ABL1 (Homo sapiens), P00519 [T315I]; settings: Compound concentration 1000.0 nM
# [4] = molecular target: Tyrosine-protein kinase ABL1 (Homo sapiens) (UniProt P00519); settings: Compound concentration 1000.0 nM
# [5] = molecular target: Activin receptor type-1-like (Homo sapiens) (UniProt P37023); settings: Compound concentration 1000.0 nM
# [6] = molecular target: Calcium/calmodulin-dependent protein kinase type 1G (Homo sapiens) (UniProt Q96NX5); settings: Compound concentration 1000.0 nM
# [7] = molecular target: Casein kinase I isoform epsilon (Homo sapiens) (UniProt P49674); settings: Compound concentration 1000.0 nM
# [8] = molecular target: Casein kinase I isoform gamma-1 (Homo sapiens) (UniProt Q9HCP0); settings: Compound concentration 1000.0 nM
# [9] = molecular target: Casein kinase I isoform gamma-2 (Homo sapiens) (UniProt P78368); settings: Compound concentration 1000.0 nM
# Sequence of Casein kinase I isoform gamma-2 (Homo sapiens) (P78368 whole entry, looked up, canonical isoform): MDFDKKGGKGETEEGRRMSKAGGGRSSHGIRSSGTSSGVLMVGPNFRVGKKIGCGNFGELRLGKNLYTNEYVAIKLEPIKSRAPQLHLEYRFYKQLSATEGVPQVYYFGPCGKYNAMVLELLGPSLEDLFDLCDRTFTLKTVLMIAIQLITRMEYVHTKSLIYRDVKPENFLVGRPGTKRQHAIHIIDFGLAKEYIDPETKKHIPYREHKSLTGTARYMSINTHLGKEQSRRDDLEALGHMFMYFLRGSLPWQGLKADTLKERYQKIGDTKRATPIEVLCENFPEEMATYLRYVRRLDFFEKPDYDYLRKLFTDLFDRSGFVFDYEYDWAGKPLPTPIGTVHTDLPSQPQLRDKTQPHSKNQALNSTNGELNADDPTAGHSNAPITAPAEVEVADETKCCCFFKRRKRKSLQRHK
# [10] = molecular target: Death-associated protein kinase 3 (Homo sapiens) (UniProt O43293); settings: Compound concentration 1000.0 nM
# Sequence of Death-associated protein kinase 3 (Homo sapiens) (O43293 whole entry, looked up, the tested form may be a part): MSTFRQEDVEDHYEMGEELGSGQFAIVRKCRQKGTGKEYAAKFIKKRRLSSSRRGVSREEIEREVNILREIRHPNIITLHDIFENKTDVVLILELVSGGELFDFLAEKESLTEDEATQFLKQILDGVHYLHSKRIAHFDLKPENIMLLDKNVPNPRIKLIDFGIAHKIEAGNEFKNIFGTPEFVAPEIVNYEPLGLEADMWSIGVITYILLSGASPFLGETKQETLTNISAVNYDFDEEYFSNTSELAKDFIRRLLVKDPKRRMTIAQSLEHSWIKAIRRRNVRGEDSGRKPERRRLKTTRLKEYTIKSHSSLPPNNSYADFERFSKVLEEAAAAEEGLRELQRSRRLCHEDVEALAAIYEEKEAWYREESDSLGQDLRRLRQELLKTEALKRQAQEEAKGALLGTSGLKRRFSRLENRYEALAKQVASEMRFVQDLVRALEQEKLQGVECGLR
# [11] = molecular target: Epithelial discoidin domain-containing receptor 1 (Homo sapiens) (UniProt Q08345); settings: Compound concentration 1000.0 nM
# [12] = molecular target: Dual specificity tyrosine-phosphorylation-regulated kinase 2 (Homo sapiens) (UniProt Q92630); settings: Compound concentration 1000.0 nM
# [13] = molecular target: Ephrin type-A receptor 4 (Homo sapiens) (UniProt P54764); settings: Compound concentration 1000.0 nM
# [14] = molecular target: Ephrin type-B receptor 1 (Homo sapiens) (UniProt P54762); settings: Compound concentration 1000.0 nM
# [15] = molecular target: Receptor tyrosine-protein kinase erbB-3 (Homo sapiens) (UniProt P21860); settings: Compound concentration 1000.0 nM
# [16] = molecular target: Mitogen-activated protein kinase 7 (Homo sapiens) (UniProt Q13164); settings: Compound concentration 1000.0 nM
# [17] = molecular target: Receptor-type tyrosine-protein kinase FLT3 (Homo sapiens) (UniProt P36888); settings: Compound concentration 1000.0 nM
# [18] = molecular target: Homeodomain-interacting protein kinase 4 (Homo sapiens) (UniProt Q8NE63); settings: Compound concentration 1000.0 nM
# [19] = molecular target: Mitogen-activated protein kinase 9 (Homo sapiens) (UniProt P45984); settings: Compound concentration 1000.0 nM
# [20] = tested on: Mast/stem cell growth factor receptor Kit (Homo sapiens), P10721 [V559D,V654A]; settings: Compound concentration 1000.0 nM
# Sequence of Mast/stem cell growth factor receptor Kit (Homo sapiens), P10721 [V559D,V654A] (P10721 whole entry V559D/V654A): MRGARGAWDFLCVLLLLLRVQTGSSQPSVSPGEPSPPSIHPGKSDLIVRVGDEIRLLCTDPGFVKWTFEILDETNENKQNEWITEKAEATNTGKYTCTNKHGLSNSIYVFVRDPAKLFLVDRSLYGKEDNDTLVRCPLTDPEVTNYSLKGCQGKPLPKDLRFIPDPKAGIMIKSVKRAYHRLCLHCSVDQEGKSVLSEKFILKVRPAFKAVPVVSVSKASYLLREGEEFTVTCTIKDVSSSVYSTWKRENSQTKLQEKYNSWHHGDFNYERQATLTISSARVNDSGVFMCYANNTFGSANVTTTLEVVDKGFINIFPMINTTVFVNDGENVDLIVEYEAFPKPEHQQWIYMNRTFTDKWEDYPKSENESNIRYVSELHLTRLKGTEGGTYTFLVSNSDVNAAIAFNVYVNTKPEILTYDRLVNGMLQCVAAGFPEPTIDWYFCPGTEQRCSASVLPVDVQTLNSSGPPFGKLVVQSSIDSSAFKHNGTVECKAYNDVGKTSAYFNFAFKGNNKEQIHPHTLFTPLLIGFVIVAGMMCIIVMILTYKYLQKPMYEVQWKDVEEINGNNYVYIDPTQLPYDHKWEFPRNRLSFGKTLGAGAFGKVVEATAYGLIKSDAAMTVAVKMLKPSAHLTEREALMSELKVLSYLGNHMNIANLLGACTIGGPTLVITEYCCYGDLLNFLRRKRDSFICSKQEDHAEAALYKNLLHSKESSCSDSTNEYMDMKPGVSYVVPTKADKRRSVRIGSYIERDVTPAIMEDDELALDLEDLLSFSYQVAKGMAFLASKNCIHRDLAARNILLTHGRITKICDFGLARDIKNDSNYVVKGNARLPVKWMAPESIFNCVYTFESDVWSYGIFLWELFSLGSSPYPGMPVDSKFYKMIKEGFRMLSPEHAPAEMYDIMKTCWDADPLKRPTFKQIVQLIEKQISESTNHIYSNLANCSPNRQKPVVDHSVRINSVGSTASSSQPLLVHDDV
# [21] = molecular target: Serine/threonine-protein kinase MRCK beta (Homo sapiens) (UniProt Q9Y5S2); settings: Compound concentration 1000.0 nM
# [22] = molecular target: Serine/threonine-protein kinase Nek1 (Homo sapiens) (UniProt Q96PY6); settings: Compound concentration 1000.0 nM
# [23] = molecular target: Serine/threonine-protein kinase Nek11 (Homo sapiens) (UniProt Q8NG66); settings: Compound concentration 1000.0 nM
# [24] = molecular target: Mitogen-activated protein kinase 12 (Homo sapiens) (UniProt P53778); settings: Compound concentration 1000.0 nM
# Sequence of Mitogen-activated protein kinase 12 (Homo sapiens) (P53778 whole entry): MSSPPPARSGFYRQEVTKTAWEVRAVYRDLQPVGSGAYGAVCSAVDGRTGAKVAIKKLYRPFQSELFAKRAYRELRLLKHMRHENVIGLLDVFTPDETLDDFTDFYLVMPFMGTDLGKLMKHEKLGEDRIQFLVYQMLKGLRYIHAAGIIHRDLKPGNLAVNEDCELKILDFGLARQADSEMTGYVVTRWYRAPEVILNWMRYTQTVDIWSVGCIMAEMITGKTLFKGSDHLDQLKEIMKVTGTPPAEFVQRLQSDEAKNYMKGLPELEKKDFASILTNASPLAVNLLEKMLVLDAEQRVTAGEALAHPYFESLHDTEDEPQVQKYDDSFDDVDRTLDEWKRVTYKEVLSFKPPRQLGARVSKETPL
# [25] = molecular target: Serine/threonine-protein kinase PAK 1 (Homo sapiens) (UniProt Q13153); settings: Compound concentration 1000.0 nM
# [26] = tested on: Phosphatidylinositol 4,5-bisphosphate 3-kinase catalytic subunit alpha isoform (Homo sapiens), P42336 [C420R]; settings: Compound concentration 1000.0 nM
# [27] = molecular target: Serine/threonine-protein kinase PLK2 (Homo sapiens) (UniProt Q9NYY3); settings: Compound concentration 1000.0 nM
# Sequence of Serine/threonine-protein kinase PLK2 (Homo sapiens) (Q9NYY3 whole entry, looked up): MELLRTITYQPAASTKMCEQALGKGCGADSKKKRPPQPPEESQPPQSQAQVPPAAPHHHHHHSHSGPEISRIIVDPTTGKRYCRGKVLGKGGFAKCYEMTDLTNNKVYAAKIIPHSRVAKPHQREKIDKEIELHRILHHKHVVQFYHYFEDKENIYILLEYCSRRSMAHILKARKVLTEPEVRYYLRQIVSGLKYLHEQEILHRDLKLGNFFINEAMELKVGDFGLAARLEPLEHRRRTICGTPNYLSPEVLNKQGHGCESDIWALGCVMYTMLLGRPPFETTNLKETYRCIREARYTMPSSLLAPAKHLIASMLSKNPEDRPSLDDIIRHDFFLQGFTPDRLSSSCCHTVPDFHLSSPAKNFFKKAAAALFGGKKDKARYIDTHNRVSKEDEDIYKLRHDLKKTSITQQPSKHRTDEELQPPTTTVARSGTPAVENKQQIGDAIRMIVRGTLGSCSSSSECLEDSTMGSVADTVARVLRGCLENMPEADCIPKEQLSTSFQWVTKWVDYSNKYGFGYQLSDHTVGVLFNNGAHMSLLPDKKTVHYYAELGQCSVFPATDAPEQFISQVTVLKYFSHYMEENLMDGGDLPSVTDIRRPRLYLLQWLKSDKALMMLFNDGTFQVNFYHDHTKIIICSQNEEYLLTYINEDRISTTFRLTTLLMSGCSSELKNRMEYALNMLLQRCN
# [28] = molecular target: RAF proto-oncogene serine/threonine-protein kinase (Homo sapiens) (UniProt P04049); settings: Compound concentration 1000.0 nM
# [29] = molecular target: Serine/threonine-protein kinase RIO1 (Homo sapiens) (UniProt Q9BRS2); settings: Compound concentration 1000.0 nM
# [30] = molecular target: Serine/threonine-protein kinase RIO3 (Homo sapiens) (UniProt O14730); settings: Compound concentration 1000.0 nM
# [31] = molecular target: Serine/threonine-protein kinase SIK1 (Homo sapiens) (UniProt P57059); settings: Compound concentration 1000.0 nM
# [32] = molecular target: BDNF/NT-3 growth factors receptor (Homo sapiens) (UniProt Q16620); settings: Compound concentration 1000.0 nM
# Sequence of BDNF/NT-3 growth factors receptor (Homo sapiens) (Q16620 32-822 limits assumed): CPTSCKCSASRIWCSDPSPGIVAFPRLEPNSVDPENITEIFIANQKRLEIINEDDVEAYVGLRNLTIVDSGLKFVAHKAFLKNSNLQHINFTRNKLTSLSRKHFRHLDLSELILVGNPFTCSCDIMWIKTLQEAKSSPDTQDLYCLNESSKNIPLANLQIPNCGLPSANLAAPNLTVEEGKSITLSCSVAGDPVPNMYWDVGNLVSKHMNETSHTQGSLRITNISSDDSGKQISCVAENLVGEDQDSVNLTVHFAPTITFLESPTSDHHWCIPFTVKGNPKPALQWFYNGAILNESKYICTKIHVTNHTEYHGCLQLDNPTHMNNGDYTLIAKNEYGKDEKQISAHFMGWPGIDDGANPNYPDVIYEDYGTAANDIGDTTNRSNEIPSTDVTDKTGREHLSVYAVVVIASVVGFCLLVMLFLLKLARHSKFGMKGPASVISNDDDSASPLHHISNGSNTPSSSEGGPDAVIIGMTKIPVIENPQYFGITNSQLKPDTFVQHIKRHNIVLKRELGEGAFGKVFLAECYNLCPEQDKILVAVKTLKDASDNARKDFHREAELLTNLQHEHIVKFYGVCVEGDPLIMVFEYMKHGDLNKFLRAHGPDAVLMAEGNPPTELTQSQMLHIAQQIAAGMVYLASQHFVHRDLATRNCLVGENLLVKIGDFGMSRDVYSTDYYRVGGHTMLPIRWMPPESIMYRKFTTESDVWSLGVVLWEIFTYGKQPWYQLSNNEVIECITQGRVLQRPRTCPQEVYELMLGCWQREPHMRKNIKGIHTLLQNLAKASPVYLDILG
# [33] = molecular target: NT-3 growth factor receptor (Homo sapiens) (UniProt Q16288); settings: Compound concentration 1000.0 nM
# [34] = molecular target: Tyrosine-protein kinase TXK (Homo sapiens) (UniProt P42681); settings: Compound concentration 1000.0 nM
# [35] = molecular target: Serine/threonine-protein kinase 25 (Homo sapiens) (UniProt O00506); settings: Compound concentration 1000.0 nM
# Sequence of Serine/threonine-protein kinase 25 (Homo sapiens) (O00506 whole entry, looked up): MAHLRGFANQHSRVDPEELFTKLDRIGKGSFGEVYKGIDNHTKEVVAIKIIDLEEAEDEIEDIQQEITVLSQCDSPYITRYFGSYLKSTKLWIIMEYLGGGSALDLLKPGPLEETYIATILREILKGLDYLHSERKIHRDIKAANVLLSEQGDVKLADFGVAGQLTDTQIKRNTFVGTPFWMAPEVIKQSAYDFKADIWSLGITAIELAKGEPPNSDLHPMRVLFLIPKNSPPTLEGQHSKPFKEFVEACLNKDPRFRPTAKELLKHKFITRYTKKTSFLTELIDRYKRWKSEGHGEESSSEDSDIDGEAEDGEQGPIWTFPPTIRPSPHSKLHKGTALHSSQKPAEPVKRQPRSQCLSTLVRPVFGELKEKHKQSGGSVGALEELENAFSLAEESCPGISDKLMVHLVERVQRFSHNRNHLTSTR
# [36] = molecular target: T1, Alpha-1A adrenergic receptor (Homo sapiens) (UniProt P35348); settings: Compound concentration 10.0 uM
# T1 sequence (whole entry): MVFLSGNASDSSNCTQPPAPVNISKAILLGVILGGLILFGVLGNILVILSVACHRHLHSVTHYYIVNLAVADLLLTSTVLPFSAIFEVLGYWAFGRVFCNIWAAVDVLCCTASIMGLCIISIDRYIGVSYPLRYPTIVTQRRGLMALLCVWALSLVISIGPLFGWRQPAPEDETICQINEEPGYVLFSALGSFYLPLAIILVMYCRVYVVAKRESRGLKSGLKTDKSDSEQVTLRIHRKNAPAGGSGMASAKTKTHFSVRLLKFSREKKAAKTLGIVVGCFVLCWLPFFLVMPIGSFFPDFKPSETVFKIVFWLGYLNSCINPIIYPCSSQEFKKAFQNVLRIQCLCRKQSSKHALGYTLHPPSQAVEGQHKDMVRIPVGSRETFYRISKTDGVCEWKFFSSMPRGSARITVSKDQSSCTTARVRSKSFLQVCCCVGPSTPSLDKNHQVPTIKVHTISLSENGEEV
# [37] = molecular target: GABA-A receptor; anion channel (Rattus norvegicus) (UniProt O09028+P15431+P18506+P18508+P19969+P20236+P23574+P23576+P28471+P28473+P30191+P62813+P63079+P63138+Q91ZM7+Q9ES14); settings: Compound concentration 10.0 uM
# Sequence of Cannabinoid receptor 1 (Homo sapiens) (P21554 whole entry): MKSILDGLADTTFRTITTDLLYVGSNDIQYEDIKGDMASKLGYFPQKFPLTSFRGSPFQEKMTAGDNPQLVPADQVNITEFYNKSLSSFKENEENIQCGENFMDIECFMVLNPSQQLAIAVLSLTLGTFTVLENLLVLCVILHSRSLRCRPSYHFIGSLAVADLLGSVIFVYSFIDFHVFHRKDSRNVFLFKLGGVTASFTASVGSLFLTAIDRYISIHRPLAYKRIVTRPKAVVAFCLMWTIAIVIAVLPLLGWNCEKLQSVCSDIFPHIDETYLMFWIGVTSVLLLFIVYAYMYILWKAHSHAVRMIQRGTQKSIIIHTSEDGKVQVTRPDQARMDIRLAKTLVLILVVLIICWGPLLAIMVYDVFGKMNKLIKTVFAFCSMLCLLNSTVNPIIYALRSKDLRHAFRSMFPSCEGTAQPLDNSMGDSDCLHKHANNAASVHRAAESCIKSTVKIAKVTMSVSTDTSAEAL
SMILES,% Inhibition of Control Agonist Response (Mean n=2) [1] [%],% of Control Agonist Response (Mean n=2) [1] [%],% Inhibition of Control Agonist Response (Mean n=2) [2] [%],% of Control Agonist Response (Mean n=2) [2] [%],residual activity [3] [%],residual activity [4] [%],residual activity [5] [%],residual activity [6] [%],residual activity [7] [%],residual activity [8] [%],residual activity [9] [%],residual activity [10] [%],residual activity [11] [%],residual activity [12] [%],residual activity [13] [%],residual activity [14] [%],residual activity [15] [%],residual activity [16] [%],residual activity [17] [%],residual activity [18] [%],also measured
O=C(N1CCS(=O)(=O)CC1)N1C[C@H](c2ccc(OC(F)(F)F)cc2)C[C@H](c2nc(C3CC3)no2)C1 [BAY-386],80.7,-267,-8.1,-1.2,92,92,100,100,100,100,89,100,100,100,100,100,100,100,81,85,residual activity [19]: 84%; residual activity [20]: 100%; residual activity [21]: 100%; residual activity [22]: 100%; residual activity [23]: 100%; residual activity [24]: 100%; residual activity [25]: 100%; residual activity [26]: 100%; residual activity [27]: 100%; residual activity [28]: 100%; residual activity [29]: 100%; residual activity [30]: 85%; residual activity [31]: 99%; residual activity [32]: 94%; residual activity [33]: 100%; residual activity [34]: 100%; residual activity [35]: 93%; inhibition [36]: -5%; inhibition [37]: -7.39%
Cc1noc([C@H]2C[C@@H](c3ccc(C(F)(F)F)cc3)CN(C(=O)N3CCS(=O)(=O)C3)C2)n1 [BAY-448],-0.6,-17.6,14.3,-1.8,100,100,100,100,100,100,100,100,100,100,100,100,100,87,100,100,residual activity [19]: 99%; residual activity [20]: 100%; residual activity [21]: 100%; residual activity [22]: 100%; residual activity [23]: 100%; residual activity [24]: 100%; residual activity [25]: 79%; residual activity [26]: 84%; residual activity [27]: 100%; residual activity [28]: 100%; residual activity [29]: 100%; residual activity [30]: 100%; residual activity [31]: 100%; residual activity [32]: 83%; residual activity [33]: 100%; residual activity [34]: 92%; residual activity [35]: 89%; inhibition [36]: -4.12%; inhibition [37]: 3.61%
